Data taken from patent publication US20250275964A1, “METHODS OF INHIBITING LIVER-TYPE GLUTAMINASE, GLS2” (CORNELL UNIVERSITY, priority 2019, published 2025).
“And” between values parts separate entries of the source, which are not always exact repeats. Equal values may be shown once.

Target: T1, recombinant full-length human GLS2 (Homo sapiens, UniProt Q9UI32)
T1 construct: GLS2 (residues 38 to 602) in E. coli; inferred from pQE80 vector and Ni-NTA/imidazole purification; made in house; host or cells: E. coli BL21(DE3)
T1 sequence (Q9UI32 38-602): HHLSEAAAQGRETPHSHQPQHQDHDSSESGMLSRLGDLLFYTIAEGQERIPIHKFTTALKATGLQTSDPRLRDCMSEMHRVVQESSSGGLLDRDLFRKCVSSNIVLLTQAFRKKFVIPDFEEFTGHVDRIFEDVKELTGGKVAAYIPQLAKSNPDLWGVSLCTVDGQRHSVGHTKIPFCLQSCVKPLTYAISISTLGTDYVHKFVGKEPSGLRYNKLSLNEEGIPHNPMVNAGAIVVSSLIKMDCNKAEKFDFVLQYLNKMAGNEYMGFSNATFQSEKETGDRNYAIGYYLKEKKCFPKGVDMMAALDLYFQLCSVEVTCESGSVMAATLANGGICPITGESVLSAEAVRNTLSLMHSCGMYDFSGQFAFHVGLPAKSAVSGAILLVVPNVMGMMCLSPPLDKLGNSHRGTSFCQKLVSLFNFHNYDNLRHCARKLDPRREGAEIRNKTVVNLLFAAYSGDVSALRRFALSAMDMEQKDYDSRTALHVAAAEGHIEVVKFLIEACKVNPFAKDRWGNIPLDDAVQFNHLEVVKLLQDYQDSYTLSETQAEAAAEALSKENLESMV
Experiment: Real-time recombinant glutaminase activity assay, GLS2
Assay type: biochemical
Protocol: Real-time monitoring of glutaminase activity through NADH production was performed on a Cary Eclipse fluorescence spectrometer. The excitation and emission wavelengths were set at 340 nm and 460 nm, respectively. To a 1 ml cuvette, 900 μl of assay buffer was added, followed by 10 μl of GDH, 40 μl of 50 mM NAD and 20 μl of either DMSO or various dilutions of 968. Then, 100 μl of either 100 nM GAC or 500 nM GLS2 was added to this mixture and the fluorescence emission was monitored in real time. After 30 s, 200 μl of a mixture of glutamine and K2HPO4 was added such that the final concentrations of K2HPO4 and glutamine were 100 mM and 20 mM, respectively. The initial velocity of glutamine hydrolysis was obtained from the slopes of the linear portion of the kinetic curve.
Recombinant GAC and GLS2 were expressed in E. coli as described in Huang et al., “Characterization of the Interactions of Potent Allosteric Inhibitors with Glutaminase C, a Key Enzyme in Cancer Cell Glutamine Metabolism,” J. Biol. Chem. 293:3535-3545 (2018), which is hereby incorporated by reference in its entirety. Briefly, E. coli strain BL21(DE3) (Thermo Fisher Scientific) were transformed with vector pQE80-GAC-72-598 or with pQE80-GLS2-38-602 to express the processed forms of GAC and GLS2, respectively. For both constructs, expression was induced with 0.3 mM IPTG for 20 hours at 18° C., and cells were then harvested by centrifugation and lysed by sonication in binding buffer (500 mM NaCl, 50 mM Tris-HCl pH 8.5, 10 mM imidazole, 5 mM β-mercaptoethanol, 1 mM benzamidine chloride). The lysate was centrifuged, and the supernatant applied to a Ni-NTA column which was then washed with 100 column volumes of binding buffer followed by 10 volumes of wash buffer (500 mM NaCl, 50 mM Tris-HCl pH 8.5, 40 mM imidazole, 5 mM β-mercaptoethanol, 1 mM benzamidine chloride). Protein was eluted with 5 column volumes of elution buffer (500 mM NaCl, 300 mM imidazole-HCl pH 7.5, 5 mM β-mercaptoethanol, 1 mM benzamidine chloride). The eluate was centrifugally concentrated and then further purified by FPLC using a HiLoad 16/600 Superdex 200 column (GE Healthcare) with 150 mM NaCl, 5 mM Tris-HCl pH 7.5.

| SMILES | inhibition of recombinant GLS2 activity (different concentrations) | inhibition of recombinant GLS2 activity (at 50 μM, NADH fluorescence in real time) | selectivity for GLS2 over GLS (purified recombinant glutaminases) |
| --- | --- | --- | --- |
| O=C(Cc1ccccc1)Nc1nnc(CCSCCc2nnc(NC(=O)Cc3ccccc3)s2)s1 [BPTES] | resistance |  |  |
| CN(C)c1ccc(C2Nc3ccc4ccccc4c3C3=C2C(=O)CC(C)(C)C3)cc1Br (stereo not shown) [Compound 968] | inhibited | completely blocks activity | > 3 fold and ~3 fold |
